Tested on: human MET
Test: MET biochemical kinase assay
Set-up: concentration or dose not given beside the values
Description: (d) MET Biochemical Kinase Assay
A met biochemical kinase assay may be performed for met generally as described above for other kinases by substituting that or the other kinases. In particular, ELISA plates are coated with goat anti-rabbit Fc antibodies, which are used to capture commercially available (from Santa Cruz Biotechnology) rabbit polyclonal antibodies to the cytoplasmic domain of human MET. […] The chimeric receptors, or MET, from these lysates are captured on the antibody coated plates. After washing away extraneous proteins, test compounds are added and an in vitro kinase assay is performed by addition of an appropriate kinase buffer (containing ATP, divalent metal ions, etc.). Incorporation of phosphate into the captured receptors is detected with an anti-phosphotyrosine antibody conjugate with horse radish peroxidase using TMB as a substrate for calorimetric detection.

Structure (SMILES) | Met Kinase % Inhibition [%]
COc1cccc(C=C2C(=O)Nc3ccc(S(=O)(=O)N4CCOCC4)cc32)c1OC [10727/F11] | −3.0
CNS(=O)(=O)c1ccc2c(c1)C(=Cc1ccc(O)c(C)c1)C(=O)N2 [10723/D06] | 60.0
Cc1c(Br)ccc2c1C(=Cc1cc(C(C)(C)C)c(O)c(C(C)(C)C)c1)C(=O)N2 [10721/C11] | 3.7
O=C1Nc2ccc(S(=O)(=O)N3CCOCC3)cc2C1=Cc1cc(O)c(O)c(Br)c1 [10723/F04] | 94.0
COc1cccc(C=C2C(=O)Nc3ccc(S(=O)(=O)Nc4ccc(C(F)(F)F)cc4)cc32)c1OC [10727/E11] | −5.4
CCc1ccc(C=C2C(=O)Nc3ccc(S(=O)(=O)Nc4ccc(C(F)(F)F)cc4)cc32)o1 [10724/E10] | 84.0
O=C1Nc2ccc(S(=O)(=O)Nc3ccc(C(F)(F)F)cc3)cc2C1=Cc1ccc(C(F)(F)F)cc1 [10722/E11] | 84.0
O=C1Nc2ccc(CCCl)cc2C1=Cc1cc2ccccc2o1 [10724/G07] | 2.3
O=C1Nc2ccc(CCCl)cc2C1=Cc1ccc(F)cc1 [10717/G05] | 4.7
O=C1Nc2ccc(CCCl)cc2C1=Cc1ccc([N+](=O)[O-])c(O)c1 [10724/G04] | 71.0
CCOc1cccc(C=C2C(=O)Nc3ccc(S(=O)(=O)NC)cc32)c1O [10734/D02] | 46.0
CC(C)(C)c1cc(C=C2C(=O)Nc3ccc(S(=O)(=O)Nc4ccc(C(F)(F)F)cc4)cc32)ccc1OCc1ccccc1 [10732/E06] | −2.1
O=C1Nc2ccc(I)cc2C1=Cc1cc(C(F)(F)F)ccc1F [10728/B08] | 77.0
CCOC(=O)c1c(C)[nH]c(C=C2C(=O)Nc3ccc(S(=O)(=O)NC)cc32)c1C [10718/D02] | 32.0
O=C1Nc2ccc(S(=O)(=O)Nc3ccc(C(F)(F)F)cc3)cc2C1=Cc1cccc(Oc2ccccc2)c1 [10729/E06] | −0.7
COc1ccc(C=C2C(=O)Nc3ccc(S(=O)(=O)Nc4ccc(C(F)(F)F)cc4)cc32)c(OC)c1 [10719/E04] | 3.1
O=C1Nc2ccc(S(=O)(=O)Nc3ccc(C(F)(F)F)cc3)cc2C1=Cc1c(Br)cnn1-c1ccc(Cl)cc1 [10725/E10] | −4.7
CC(C)(C)c1cc(C=C2C(=O)Nc3ccc(I)cc32)cc(Cl)c1O [10722/B08] | 72.0
Cc1cc(C)c(C=C2C(=O)Nc3ccc(CCCl)cc32)[nH]1 [10721/G08] | −2.4
O=C1Nc2ccc(CCCl)cc2C1=Cc1ccccc1O [10720/G05] | 37.0
CCc1c(C)[nH]c(C=C2C(=O)Nc3ccc(S(=O)(=O)Nc4ccc(C(F)(F)F)cc4)cc32)c1C [10719/E05] | 39.0
Cc1c(Br)ccc2c1C(=Cc1ccc(F)cc1C(F)(F)F)C(=O)N2 [10719/C11] | −5.1
Cc1ccc(C=C2C(=O)Nc3ccc(S(=O)(=O)Nc4ccc(C(F)(F)F)cc4)cc32)s1 [10717/E07] | 41.0
Cc1c(Br)ccc2c1C(=Cc1cc(Cl)c(OCc3ccccc3)c(C(C)(C)C)c1)C(=O)N2 [10732/C10] | 43.0
COc1ccc(C=C2C(=O)Nc3ccc(S(=O)(=O)N4CCOCC4)cc32)c(OC)c1 [10719/F04] | 3.3
CC(C)(C)c1cc(C=C2C(=O)Nc3c(Br)cc(Br)cc32)c(O)c(C(C)(C)C)c1 [10723/A11] | 60.0

Structure (SMILES) | Met Kinase % Inhibition [%]
CC(=O)n1cc(C=C2C(=O)Nc3ccc(S(=O)(=O)Nc4ccc(C(F)(F)F)cc4)cc32)c2ccccc21 [10730/E05] | 49.0
COc1cc(OC)c(OC)cc1C=C1C(=O)Nc2ccc(S(=O)(=O)N3CCOCC3)cc21 [10730/F03] | −0.6
O=C1Nc2ccc(CCCl)cc2C1=Cc1c[nH]c2ccccc12 [10717/G06] | 34.0
Cc1ccc(C=C2C(=O)Nc3ccc(S(=O)(=O)Nc4ccc(C(F)(F)F)cc4)cc32)o1 [10725/E04] | 59.0
Cc1c(Br)ccc2c1C(=Cc1sccc1Br)C(=O)N2 [10725/C02] | 6.3
COc1c(I)cc(C=C2C(=O)Nc3ccc(CCCl)cc32)cc1C(C)(C)C [10732/G11] | 63.0
Cc1c(Br)ccc2c1C(=Cc1nn(C)cc1Cl)C(=O)N2 [10721/C03] | 6.2
CNS(=O)(=O)c1ccc2c(c1)C(=Cc1ccc(N3CCN(C=O)CC3)cc1)C(=O)N2 [10725/D07] | 37.0
Cc1c(Br)ccc2c1C(=Cc1ccc(O)cc1)C(=O)N2 [10719/C07] | 7.7
Cc1ccc(C=C2C(=O)Nc3ccc(CCCl)cc32)s1 [10717/G07] | 7.5
O=C1Nc2ccc(CCCl)cc2C1=Cc1ccc(O)cc1 [10719/G07] | 24.0
CNS(=O)(=O)c1ccc2c(c1)C(=Cc1cc3ccccc3nc1Cl)C(=O)N2 [10730/D08] | −13.6
O=C1Nc2ccc(CCCl)cc2C1=Cc1ccc([N+](=O)[O-])o1 [10718/G11] | 3.0
Cc1c(Br)ccc2c1C(=Cc1cccn1C)C(=O)N2 [10717/C04] | 25.0
O=C1Nc2ccc(CCCl)cc2C1=Cc1cc(Cl)cc(Br)c1O [10727/G04] | 94.0
CNS(=O)(=O)c1ccc2c(c1)C(=Cc1cccn1C)C(=O)N2 [10717/D04] | 21.0
C=C(C)C1CC=C(C=C2C(=O)Nc3ccc(I)cc32)CC1 (stereo not shown) [10731/B04] | 71.0
Cc1c(Br)ccc2c1C(=Cc1c(Br)cnn1-c1ccc(Cl)cc1)C(=O)N2 [10725/C10] | −0.6
Cn1c(C=C2C(=O)Nc3ccc(CCCl)cc32)nc2ccccc21 [10721/G02] | 7.9
O=C1Nc2ccc(S(=O)(=O)Nc3ccc(C(F)(F)F)cc3)cc2C1=Cc1ccc(N2CCCC2)cc1 [10729/E10] | 7.5
O=C1Nc2ccc(S(=O)(=O)N3CCOCC3)cc2C1=Cc1ccc(Br)cc1 [10717/F08] | 64.0
COc1c(C(C)(C)C)cc(C=C2C(=O)Nc3c(Br)cc(Br)cc32)cc1C(C)(C)C [10733/A04] | 24.0
COc1ccc2[nH]cc(C=C3C(=O)Nc4ccc(CCCl)cc43)c2c1 [10731/G09] | 4.4
Cc1c(Br)ccc2c1C(=Cc1cccc([N+](=O)[O-])c1)C(=O)N2 [10719/C10] | 7.9
COc1ccc(C=C2C(=O)Nc3ccc(S(=O)(=O)N4CCOCC4)cc32)c(OC)c1OC [10730/F02] | −6.2
Cc1c(Br)ccc2c1C(=Cc1ccc(N3CCOCC3)cc1)C(=O)N2 [10725/C08] | 28.0

Structure (SMILES) | Met Kinase % Inhibition [%]
CC(C)(C)c1cc(C=C2C(=O)Nc3ccc(S(=O)(=O)Nc4ccc(C(F)(F)F)cc4)cc32)cc(Cl)c1OCc1ccccc1 [10732/E10] | 1.6
C=C(C)C1CC=C(C=C2C(=O)Nc3ccc(S(=O)(=O)N4CCOCC4)cc32)CC1 (stereo not shown) [10731/F04] | 17.0
CC(C)(C)c1cc(C=C2C(=O)Nc3ccc(S(=O)(=O)Nc4ccc(C(F)(F)F)cc4)cc32)cc(C(C)(C)C)c1OCc1ccccc1 [10733/E05] | 2.9
COc1cc(C=C2C(=O)Nc3ccc(S(=O)(=O)N4CCOCC4)cc32)cc(OC)c1OC [10730/F04] | 36.0
CNS(=O)(=O)c1ccc2c(c1)C(=Cc1cc(Br)cc(OC)c1O)C(=O)N2 [10733/D08] | 80.0
O=C1Nc2ccc(CCCl)cc2C1=Cc1cccn1-c1ccc(Cl)cc1 [10724/G09] | −2.8
COc1ccc(C=C2C(=O)Nc3ccc(CCCl)cc32)c(OC)c1 [10719/G04] | −8.2
CNS(=O)(=O)c1ccc2c(c1)C(=Cc1ccc(Br)cc1)C(=O)N2 [10717/D08] | 16.0
O=C1Nc2ccc(CCCl)cc2C1=Cc1ccccc1Br [10723/G07] | 43.0
CCOC(=O)c1cc(C=C2C(=O)Nc3ccc(CCCl)cc32)oc1C [10718/G06] | 61.0
O=C1Nc2ccc(S(=O)(=O)N3CCOCC3)cc2C1=Cc1cc(Cl)cc(Br)c1O [10727/F04] | 92.0
Cc1c(Br)ccc2c1C(=Cc1cc(C(C)(C)C)cc(C(C)(C)C)c1O)C(=O)N2 [10723/C11] | 47.0
COc1cc(Br)cc(C=C2C(=O)Nc3ccc(CCCl)cc32)c1O [10733/G08] | 79.0
O=C1Nc2ccc(S(=O)(=O)N3CCOCC3)cc2C1=Cc1ccc(F)cc1C(F)(F)F [10719/F11] | 8.7
N#Cc1cccc(C=C2C(=O)Nc3c(Br)cc(Br)cc32)c1 [10727/A08] | 9.7
COc1ccc(C=C2C(=O)Nc3ccc(Br)c(C)c32)cc1OC [10720/C04] | 29.0
CCOc1ccc(C=C2C(=O)Nc3ccc(CCCl)cc32)cc1OC [10719/G02] | −2.4
CN(C)c1ccc(C=C2C(=O)Nc3ccc(S(=O)(=O)Nc4ccc(C(F)(F)F)cc4)cc32)cc1 [10719/E08] | 80.0
CNS(=O)(=O)c1ccc2c(c1)C(=Cc1ccc(OC)cc1)C(=O)N2 [10726/D11] | 9.6
Cc1c(Br)ccc2c1C(=Cc1ccc(Br)o1)C(=O)N2 [10726/C05] | 58.0
Cc1c(Br)ccc2c1C(=Cc1ccc(O)c(C(C)(C)C)c1)C(=O)N2 [10721/C09] | −4.7
Cc1c(Br)ccc2c1C(=Cc1ccco1)C(=O)N2 [10718/C10] | 4.4
Cc1c(Br)ccc2c1C(=Cc1ccc(F)cc1Cl)C(=O)N2 [10719/C09] | 8.9
CCN(CC)c1ccc(C=C2C(=O)Nc3ccc(S(=O)(=O)NC)cc32)c(O)c1 [10734/D05] | 55.0
